Experimental data from US20090312406A1, “COUMARIN COMPOUNDS AND THEIR USE FOR TREATING VIRAL INFECTION” (priority 2008, published 2009).
Read-outs that look alike come from different tables or passages of the source.

How the values were obtained:
Coxsackie B virus 3 = test: In vitro Coxsackie Virus B3 neutralization assay, cytopathic effect on RD cells; format: cell-based; settings: Coxsackie B virus 3, RD cells, CPE
Method: (§1) This assay measured the ability of a test compound to inhibit the cytopathic effect induced by a picornavirus (EV71, Coxsackie Virus B3, or human rhinovirus 2) on RD cells. The method used for this assay is described in Chang et al., J Med Chem, 2005, 48(10), 3522-3535. More specifically, 96-well tissue culture plates were seeded with 200 μL of RD cells at a concentration of 3×10^5 cells/mL in DMEM with 10% FBS. The plates were incubated for 24-30 h at 37° C. and were used at about 90% confluency. Virus (100 TCID50) mixed with different concentrations of a test compound was added to the cells and incubated at 37° C. for 1 h. After adsorption, the infected cell plates were overlaid with 50 μL of DMEM plus 5% FBS and 2% DMSO. The plate was wrapped in Parafilm and incubated at 37° C. for 64 h. At the end of incubation, the plates were fixed by the addition of 100 μL of 0.5% glutaraldehyde for 1 h at room temperature. After the removal of glutaraldehyde, the plates were stained with 0.1% crystal violet for 15 min at room temperature. The plates were washed and dried, and the density of the well was measured at 570 nm. The concentration required for a test compound to reduce the virus-induced cytopathic effect (CPE) by 50% relative to the virus control is expressed as IC50.

Human rhinovirus 2 = test: In vitro human rhinovirus 2 neutralization assay, cytopathic effect on RD cells; format: cell-based; settings: Rhinovirus A
Method: as §1

Influenza B/TW/70325/05 = test: Anti-influenza CPE neutralization test on MDCK cells; format: cell-based; settings: Influenza B virus, Influenza B/TW/70325/05, CPE
Method: (§2) Anti-influenza activities of the coumarin compounds were evaluated by measuring the ability of a test compound to inhibit the cytopathic effect induced by an influenza virus on MDCK cells. The 96-well tissue culture plates were seeded with 200 μL of MDCK cells at a concentration of 1.1×10^5 cells/mL in DMEM with 10% fetal bovine serum (FBS). The plates were incubated for 24-30 h at 37° C. and were used at about 90% confluency. Influenza A/WSN/33 (H1N1) virus (100 TCID50) was added to the cells and incubated at 35° C. for 1 h. After adsorption, the infected cell plates were overlaid with 50 μL of DMEM plus 2% FBS and a test compound with different concentrations. The plate was incubated at 35° C. for 72 h. At the end of incubation, the plates were fixed by the addition of 100 μL of 4% formaldehyde for 1 h at room temperature. After the removal of formaldehyde, the plates were stained with 0.1% crystal violet for 15 min at room temperature. The plates were washed and dried, and the density of the well was measured at 570 nm. The concentration required for a test compound to reduce the virus-induced cytopathic effect (CPE) by 50% relative to the virus control was expressed as IC50.
(§3) Compounds 1 and 95 were also tested on various influenza virus strains. Amantadine or Relenza was also tested for comparison. IC50 is defined as the concentration required for a test compound to reduce the virus-induced cytopathic effect (CPE) by 50% relative to the virus control.

Influenza B/TW/99/07 = test: as above; format: cell-based; settings: Influenza B virus, Influenza B/TW/99/07, CPE
Method: as §2, §3

Influenza B/TW/710/05 = test: as above; format: cell-based; settings: Influenza B virus, Influenza B/TW/710/05, CPE
Method: as §2, §3

[1] = tested on: Influenza A/TW/3446/04 (H3N2); test: as above; format: cell-based; settings: Influenza A virus
Method: as §2, §3

[2] = tested on: Influenza A/TW/785/05 (H1N1); test: as above; format: cell-based; settings: Influenza A virus
Method: as §2, §3

[3] = tested on: Influenza A/Udorn/72 (H3N2); test: as above; format: cell-based; settings: Influenza A virus
Method: as §2, §3

[4] = tested on: Influenza A/TW/141/04 (H1N1); test: as above; format: cell-based; settings: Influenza A virus
Method: as §2, §3

[5] = tested on: Influenza A/TW/83/05 (H3N2); test: as above; format: cell-based; settings: Influenza A virus
Method: as §2, §3

[6] = tested on: Influenza A/WSN/33 (H1N1) virus; test: In vitro anti-influenza virus assay (neutralization test), cytopathic effect on MDCK cells; format: cell-based
Enterovirus 71 (4643) = test: In vitro EV 71 neutralization assay, cytopathic effect on RD cells; format: cell-based; settings: Enterovirus A
Method: as §1

HSV-1 = test: In vitro HSV-1 plaque reduction assay in Vero cells (Example 5); format: cell-based; settings: Human alphaherpesvirus 1; HSV-1, Vero cells, 72 h; read-out: EC50 (concentration reducing 50% of plaque numbers)
Method: The method used for this assay is described in Su et al., Antiviral Res., 2008, 79(1), 62-70.
Vero cells were seeded onto a 96-well culture plate at a concentration of 10^4 cells per well one day before infection. Next day, medium was removed and 10 plaque forming unit (pfu) HSV-1 suspension per well were added and incubated at 37° C. with 5% CO2 for 1 h. The infected cell monolayer was then washed with phosphate buffered saline (PBS) and cultured in maintenance medium containing 1 μM of compounds. After 72 h of incubation at 37° C., cell monolayer was fixed with 10% formalin and stained with 1% crystal violet.
Plaque assays were performed with monolayer cultures of Vero cells in 24-well culture plates. For plaque reduction assay, cell monolayer was infected with virus (50 pfu/well) and incubated at 37° C. with 5% CO2 for 1 h. The infected cell monolayer was then washed three times with PBS and overlaid with overlapping solution (maintenance medium containing 1% methylcellulose and various concentrations of indicated compounds). After 72 h of incubation at 37° C., cell monolayer was fixed with 10% formalin and stained with 1% crystal violet. […] The minimal concentration of compounds required to reduce 50% of plaque numbers (EC50) was calculated by regression analysis of the dose-response curves generated from plaque assays.

HIV-1 = test: Inhibition of HIV-1 replication in peripheral blood mononuclear cells, viral RNA by real-time PCR; settings: Human immunodeficiency virus 1, PBMC
Method: Equal amounts of wild-type and mutant viruses were used to infect 5×10^4 peripheral blood mononuclear cells (PBMC) in 1.5 mL medium containing DMSO or various concentrations of a test compound. A half-milliliter of the culture medium was collected from each culture at days 3, 5, and 7. Viral RNA was extracted from the collected culture supernatants and the viral titers (copies/mL) were determined by real-time PCR. The percentage of inhibition was calculated as [100−(VD/VC)]×100%, where VD and VC refer to the virus titers in the presence and absence of the test compound, respectively.

EBV = test: In vitro EBV assay, EBV reactivation in NA cells by anti-EBV-EAD immunofluorescence; format: cell-based, Epstein-Barr virus (EBV); settings: human gammaherpesvirus 4; EBV reactivation by TPA/SB in NA cells, compound added 24 h before; read-out: EC50 (concentration reducing 50% of virus replication numbers)
Method: The method used for this assay is described in Chang et al., J Virol, 1999, 73, 8857-8866 and Tsai et al., J Virol Methods, 1991, 33, 47-52.
To suppress EBV reactivation, a test compound was added to the NA cell culture medium at indicated final concentration 24 h prior to 12-o-tetradecanoylphorbol-13-acetate (TPA)/sodium n-butyrate (SB) treatment. After treatment, the cells were fixed and assayed by anti-EBV-EAD immunofluorescence for detection of EBV reactivation. […] NA cells were subjected to treatment with the test compound 24 h prior to the addition of TPA/SB. […] Cells were stained with anti-EBV EAD antibody. […] The minimal concentration of the test compound required to reduce 50% of virus replication numbers (EC50) was calculated from regression analysis of the dose-response curves obtained from anti-EBV-EAD immunofluorescence.

[7] = Cytotoxicity (CC50) of the compounds tested in the anti-HSV assay; format: cell-based; settings: African green monkey, Vero cells; Table 5; read-out: CC50 (μM), 50% cytotoxicity concentration
[8] = tested on: herpes simplex virus type 1; test: In vitro assessment of anti-HSV activity, plaque reduction assay in Vero cells (Example 8); format: cell-based
Method: Anti-HSV activities of compounds described herein were evaluated by performing a plaque reduction assay using monolayer cultures of Vero cells in 24-well culture plates. A cell monolayer was infected with herpes simplex virus type 1 (50 pfu/well) and incubated at 37° C. with 5% CO2 for 1 h. The infected cell monolayer was then washed three times with PBS and overlaid with a solution (maintenance medium containing 1% methylcellulose and various concentrations of a test compound). After 72 h of incubation at 37° C., the cell monolayer was fixed with 10% formalin and stained with 1% crystal violet. […] The minimal concentration of a compound required to reduce 50% of plaque numbers (EC50) was calculated by regression analysis of the dose-response curves generated from the plaque assay.

[9] = Human rhinovirus 2, RD cells, CPE, read-out: IC50
[10] = MDCK, CPE, Table 2, read-out: IC50
[11] = Enterovirus 71 (4643), RD cells, CPE, read-out: IC50
[12] = 72 h, read-out: Inhibition (%) Day 3
[13] = 120 h, read-out: Inhibition (%) Day 5
[14] = 168 h, read-out: Inhibition (%) Day 7
[15] = MDCK cells, 72 h, lower bound (10 nM), upper in μM, read-out: IC50 (concentration reducing virus-induced cytopathic effect by 50%)

SMILES	IC50 (Coxsackie B virus 3) [µM]	IC50 (Human rhinovirus 2; [9]) [µM]	IC50 (Influenza B/TW/70325/05) [µM]	IC50 (Influenza B/TW/99/07) [µM]	IC50 (Influenza B/TW/710/05) [µM]	IC50 [1] [µM]	IC50 [2] [µM]	IC50 [3] [µM]	IC50 [4] [µM]	IC50 [5] [µM]	IC50 [6, 10] [nM]	IC50 (Enterovirus 71 (4643); [11]) [µM]	inhibition at 0.1 µM (HIV-1; [12]) [%]	inhibition at 0.1 µM (HIV-1; [13]) [%]	inhibition at 0.1 µM (HIV-1; [14]) [%]	IC50 [6, 15] [nM]	other results
CC(=O)N[C@H]1[C@H]([C@H](O)[C@H](O)CO)OC(C(=O)O)=C[C@@H]1N=C(N)N [Relenza, Zanamivir, reference compound]	> 25	> 25	0.02 ± 0.01	0.099 ± 0.009	0.03 ± 0.019	0.03 ± 0.01	1.06 ± 0.982	0.67 ± 0.232	0.35 ± 0.14	0.918 ± 0.026	62 ± 18	> 25	–	–	–	–	–
NC12CC3CC(CC(C3)C1)C2 [Amantadine]	> 25	–	> 25	> 25	> 25	–	0.382 ± 0.238	0.98 ± 0.147	–	> 25	> 25000	–	–	–	–	–	IC50 (Human rhinovirus 2; RD): > 25 µM; IC50 (Enterovirus 71 (4643); RD): > 25 µM
Cc1cc(=O)oc2c1ccc1oc(C(=O)c3ccccc3)c(-c3ccccc3)c12 [Compound 1, 8-benzoyl-4-methyl-9-phenyl-furo[2,3-h]chromen-2-one]	0.005 ± 0.001	0.012 ± 0.001	0.067 ± 0.002	0.089 ± 0.014	0.102 ± 0.02	–	0.052 ± 0.001	0.347 ± 0.188	–	0.057 ± 0.006	119 ± 43	0.002 ± 0.001	2	82	91	10 to 999	EC50 (HSV-1): ~0.5 µM; EC50 (EBV): < 0.5 µM
Cc1cc(=O)oc2c1ccc1oc(C(=O)c3cccs3)c(-c3ccccc3)c12 [Compound 95]	–	–	0.09 ± 0.01	0.04 ± 0.01	0.09 ± 0.01	0.15 ± 0.01	–	–	0.09 ± 0.01	–	70 ± 10	–	42	89	99	10 to 999	CC50 [7]: > 100 µM; SI, selectivity index = CC50/EC50 ([8]; CC50/EC50, HSV-1): >1666.666; EC50 ([8]; Human alphaherpesvirus 1, herpes simplex virus type 1, Vero cells, plaque reduction, 72 h, read-out: EC50 (μM), 50% effective concentration): 0.06 µM
